From patent US20250389725A1, “METHOD FOR DETECTION OF SULFUR-CONTAINING AMINO ACID AS BIOMARKER FOR GLIOBLASTOMA USING NOVEL FLUORESCENT PROBE AND FLUORESCENCE-GUIDED SURGERY IMAGING APPLICATION THEREOF” (UNIVERSITY-INDUSTRY COOPERATION GROUP OF KYUNG HEE …, priority 2023, published 2025)

What was measured:
Type in all cases: cell-based
[1] = test system: glioblastoma cells (U87MG); experiment: CCK-8 cell viability (toxicity), U87MG; details: CCK-8, compared to leaving groups with similar structures
Description: (§1) Specifically, for cell preparation, approximately 5×10^3 cells each of glioblastoma cells (U87MG), hepatoma cells (Huh7), cervical cancer cells (HeLa), and skin cancer cells (B16F10) were treated in a 96-well clear plate (SPL Life Science, Ref. of Korea), cultured at 37° C. for 24 hours, and then treated with Compound 1 (NPO-o-Pyr, 10 μM) and analyzed using a CCK-8 assay kit (Dofindo, Japan) according to the manufacturer's instructions. Absorbance levels were analyzed at a wavelength of 490 nm by a microplate reader (SpctraMax Gemini EM, Molecular Devices, US). 2-Hydroxypyridine and various leaving groups with similar structures thereto were treated in U87MG, Huh7, HeLa, and B16F10 cells, and the cell viability was measured, which was shown in FIG. 12.

[2] = test system: skin cancer cells (B16F10); experiment: CCK-8 cell viability (toxicity), B16F10; details: B16F10, CCK-8, compared to leaving groups with similar structures
Description: as §1

[3] = test system: hepatoma cells (Huh7); experiment: CCK-8 cell viability (toxicity), Huh7; details: Huh7, CCK-8, compared to leaving groups with similar structures
Description: as §1

[4] = test system: cervical cancer cells (HeLa); experiment: CCK-8 cell viability (toxicity), HeLa; details: CCK-8, compared to leaving groups with similar structures
Description: as §1

Measured: toxicity (cell viability)

Oc1ccccn1 [2-hydroxypyridine]
very low: all assays above
